The compounds below were run against T1, human CTPS1 (Homo sapiens, UniProt P17812) (assay: RapidFire/MS-based enzyme selectivity assay (human CTPS1 versus CTPS2), CTPS1 isoform). Settings: Table 16, human CTPS1 over human CTPS2, RapidFire/MS IC50 values.
T1 construct: FLAG (with GG linker); His8 (with GG linker); purchased Proteros biostructures GmbH
T1 sequence (P17812 1-591): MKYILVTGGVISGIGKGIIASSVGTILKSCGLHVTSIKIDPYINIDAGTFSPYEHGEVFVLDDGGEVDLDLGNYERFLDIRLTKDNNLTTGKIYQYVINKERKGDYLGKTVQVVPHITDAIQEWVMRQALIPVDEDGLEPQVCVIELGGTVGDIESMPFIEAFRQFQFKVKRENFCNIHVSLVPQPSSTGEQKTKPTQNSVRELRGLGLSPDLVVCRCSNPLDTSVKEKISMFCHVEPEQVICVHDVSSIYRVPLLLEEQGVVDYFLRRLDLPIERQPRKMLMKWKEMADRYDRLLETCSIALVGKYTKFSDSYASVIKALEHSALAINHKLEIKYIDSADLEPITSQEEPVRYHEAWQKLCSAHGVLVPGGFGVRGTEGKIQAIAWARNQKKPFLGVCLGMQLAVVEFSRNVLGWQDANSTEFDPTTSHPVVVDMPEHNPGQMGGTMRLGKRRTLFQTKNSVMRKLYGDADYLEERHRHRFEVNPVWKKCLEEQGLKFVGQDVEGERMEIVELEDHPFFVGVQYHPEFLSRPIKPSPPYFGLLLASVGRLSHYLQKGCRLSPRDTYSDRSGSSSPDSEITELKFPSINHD
Format: biochemical
How it was run: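 Full-length C-terminal FLAG-His-tagged CTPS1 (1-591) was preincubated 10 min at 25 °C with compound in HEPES pH 8.0 buffer with MgCl2, KCl, DTT and Tween-20. Reactions were started with a 2× mix of ATP 0.3 mM, UTP 0.2 mM, GTP 0.07 mM and L-glutamine 0.1 mM, and run in the linear phase at 25 °C. IC50 comes from the RapidFire-MS ratio of CTP to 13C9-15N3-CTP.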

Selectivity (fold selectivity between CTPS1 and CTPS2) | Compound
++ (>30-60 fold (++)) | Cc1cc(-c2cncc(C(F)(F)F)n2)ccc1C(=O)NC(C)(C)c1csc(NS(=O)(=O)C2CC2)n1 [R45, N-(2-(2-(cyclopropanesulfonamido)thiazol-4-yl)propan-2-yl)-2-methyl-4-(6-(trifluoromethyl)pyrazin-2-yl)benzamide]
+ (2-30 fold (+)) | CCOc1cncc(-c2ccc(C(=O)NC(C)(C)c3csc(NS(=O)(=O)C4CC4)n3)c(C)c2)n1 [R46, N-(2-(2-(cyclopropanesulfonamido)thiazol-4-yl)propan-2-yl)-4-(6-ethoxypyrazin-2-yl)-2-methyl benzamide]
+ (2-30 fold (+)) | CCOc1cncc(-c2ccc(C(=O)NC(C)(C)c3csc(NS(=O)(=O)C4CC4)n3)c(C(F)(F)F)c2)n1 [R47, N-(2-(2-(cyclopropanesulfonamido)thiazol-4-yl)propan-2-yl)-4-(6-ethoxypyrazin-2-yl)-2-(trifluoromethyl)benzamide]
++ (>30-60 fold (++)) | COc1cc(-c2cncc(C(F)(F)F)n2)ccc1C(=O)NC(C)(C)c1csc(NS(=O)(=O)C2CC2)n1 [R48, N-(2-(2-(cyclopropanesulfonamido)thiazol-4-yl)propan-2-yl)-2-methoxy-4-(6-(trifluoromethyl)pyrazin-2-yl)benzamide]
++ (>30-60 fold (++)) | CC(C)(NC(=O)c1ccc(-c2cncc(C(F)(F)F)n2)cc1)c1csc(NS(=O)(=O)C2CC2)n1 [R51, N-(2-(2-(cyclopropanesulfon-amido)thiazol-4-yl)propan-2-yl)-4-(6-(trifluoromethyl)pyrazin-2-yl)benzamide]
+++ (>60 fold (+++)) | CC(C)(NC(=O)c1ccc(-c2cncc(Cl)n2)cc1)c1csc(NS(=O)(=O)C2CC2)n1 [R52, 4-(6-chloropyrazin-2-yl)-N-(2-(2-(cyclopropanesulfon-amido)thiazol-4-yl)propan-2-yl)benzamide]
+ (2-30 fold (+)) | COc1cncc(-c2ccc(C(=O)NC(C)(C)c3csc(NS(=O)(=O)C4CC4)n3)cc2)n1 [R54, N-(2-(2-(cyclopropanesulfon-amido)thiazol-4-yl)propan-2-yl)-4-(6-methoxypyrazin-2-yl)benzamide]
+++ (>60 fold (+++)) | CCOc1cncc(-c2ccc(C(=O)NC(C)(C)c3csc(NS(=O)(=O)C4CC4)n3)cc2)n1 [R55, N-(2-(2-(cyclopropanesulfon-amido)thiazol-4-yl)propan-2-yl)-4-(6-ethoxypyrazin-2-yl)benzamide]
+++ (>60 fold (+++)) | CC(C)Oc1cncc(-c2ccc(C(=O)NC(C)(C)c3csc(NS(=O)(=O)C4CC4)n3)cc2)n1 [R56, N-(2-(2-(cyclopropanesulfon-amido)thiazol-4-yl)propan-2-yl)-4-(6-isopropoxypyrazin-2-yl)benzamide]
+ (2-30 fold (+)) | CCOc1cncc(-c2ccc(C(=O)NC(C)(C)c3nc(NS(=O)(=O)C4CC4)sc3Cl)nc2)n1 [R73]
++ (>30-60 fold (++)) | CCOc1cncc(-c2ccc(C(=O)NC(C)(C)c3nc(NS(=O)(=O)C4CC4)sc3C)c(F)c2)n1 [R74, N-(2-(2-(cyclopropanesulfon-amido)-5-methylthiazol-4-yl)propan-2-yl)-4-(6-ethoxypyrazin-2-yl)-2-fluorobenzamide]
+++ (>60 fold (+++)) | CCOc1cncc(-c2ccc(C(=O)NC(C)(C)c3nc(NS(=O)(=O)C4CC4)sc3Cl)c(F)c2)n1 [R75, N-(2-(5-chloro-2-(cycloprop-anesulfonamido)thiazol-4-yl)propan-2-yl)-4-(6-ethoxypyrazin-2-yl)-2-fluorobenzamide]
+ (2-30 fold (+)) | Cc1cc(-c2cncc(C(F)(F)F)n2)ccc1C(=O)NC(C)(C)c1nc(NS(=O)(=O)C2CC2)sc1C [R76, N-(2-(2-(cyclopropanesulfon-amido)-5-methylthiazol-4-yl)propan-2-yl)-2-methyl-4-(6-(trifluoromethyl)pyrazin-2-yl)benzamide]
++ (>30-60 fold (++)) | Cc1sc(NS(=O)(=O)C2CC2)nc1C(C)(C)NC(=O)c1ccc(-c2cncc(C(F)(F)F)n2)cc1 [R78, N-(2-(2-(cyclopropanesulfon-amido)-5-methylthiazol-4-yl)propan-2-yl)-4-(6-(trifluoromethyl)pyrazin-2-yl)benzamide]
+ (2-30 fold (+)) | CC(C)(NC(=O)c1ccc(-c2cncc(C(F)(F)F)n2)cc1)c1nc(NS(=O)(=O)C2CC2)sc1Cl [R79, N-(2-(5-chloro-2-(cycloprop-anesulfonamido)thiazol-4-yl)propan-2-yl)-4-(6-(trifluoromethyl)pyrazin-2-yl)benzamide]
+++ (>60 fold (+++)) | CCOc1cncc(-c2ccc(C(=O)NC3(c4csc(NS(=O)(=O)C5CC5)n4)CC3)nc2)n1 [R80, N-(1-(2-(cyclopropanesulfon-amido)thiazol-4-yl)cyclo-propyl)-5-(6-ethoxypyrazin-2-yl)picolinamide]
+++ (>60 fold (+++)) | CCOc1cncc(-c2ccc(C(=O)NC3(c4csc(NS(=O)(=O)C5CC5)n4)CC3)c(F)c2)n1 [R82, N-(1-(2-(cyclopropanesulfon-amido)thiazol-4-yl)cyclo-propyl)-4-(6-ethoxypyrazin-2-yl)-2-fluorobenzamide]
+++ (>60 fold (+++)) | Cc1cc(-c2cncc(C(F)(F)F)n2)ccc1C(=O)NC1(c2csc(NS(=O)(=O)C3CC3)n2)CC1 [R83, N-(1-(2-(cyclopropanesulfon-amido)thiazol-4-yl)cyclopropyl)-2-methyl-4-(6-(trifluoromethyl)pyrazin-2-yl)benzamide]
+++ (>60 fold (+++)) | O=C(NC1(c2csc(NS(=O)(=O)C3CC3)n2)CC1)c1ccc(-c2cncc(C(F)(F)F)n2)cc1 [R84, N-(1-(2-(cyclopropanesulfon-amido)thiazol-4-yl)cyclopropyl)-4-(6-(trifluoromethyl)pyrazin-2-yl)benzamide]
+++ (>60 fold (+++)) | CCc1cncc(-c2ccc(C(=O)NC(CCOC)c3csc(NS(=O)(=O)C4CC4)n3)c(F)c2)n1 (stereo not shown) [R86, N-(1-(2-(cyclopropanesulfon-amido)thiazol-4-yl)-3-methoxypropyl)-4-(6-ethyl-pyrazin-2-yl)-2-fluorobenzamide]
++ (>30-60 fold (++)) | COCCC(NC(=O)c1ccc(-c2cncc(C(F)(F)F)n2)cc1F)c1csc(NS(=O)(=O)C2CC2)n1 (stereo not shown) [R87, N-(1-(2-(cyclopropanesulfon-amido)thiazol-4-yl)-3-methoxypropyl)-2-fluoro-4-(6-(trifluoromethyl)pyrazin-2-yl)benzamide]
+++ (>60 fold (+++)) | CCOc1cncc(-c2ccc(C(=O)NC(CCOC)c3csc(NS(=O)(=O)C4CC4)n3)c(F)c2)n1 (stereo not shown) [R88, N-(1-(2-(cyclopropanesulfon-amido)thiazol-4-yl)-3-methoxypropyl)-4-(6-ethoxypyrazin-2-yl)-2-fluorobenzamide]
+++ (>60 fold (+++)) | COCCC(NC(=O)c1ccc(-c2cncc(OC(C)C)n2)cc1F)c1csc(NS(=O)(=O)C2CC2)n1 (stereo not shown) [R89, N-(1-(2-(cyclopropanesulfon-amido)thiazol-4-yl)-3-methoxypropyl)-2-fluoro-4-(6-isopropoxypyrazin-2-yl)benzamide]
++ (>30-60 fold (++)) | CCOc1cncc(-c2ccc(C(=O)NC(CCOC)c3csc(NS(=O)(=O)C4CC4)n3)cc2)n1 (stereo not shown) [R90, N-(1-(2-(cyclopropanesulfon-amido)thiazol-4-yl)-3-methoxypropyl)-4-(6-ethoxy-pyrazin-2-yl)benzamide]
+++ (>60 fold (+++)) | CCOc1cncc(-c2ccc(C(=O)NC(C)c3csc(NS(=O)(=O)C4CC4)n3)c(F)c2)n1 (stereo not shown) [R91, N-(1-(2-(cyclopropanesulfon-amido)thiazol-4-yl)ethyl)-4-(6-ethoxypyrazin-2-yl)-2-fluorobenzamide]

— patent publication US20230086703A1, “N-(4-(5-chloropyridin-3-yl)phenyl)-2-(2-(cyclopropanesulfonamido)pyrimidin-4-yl) butanamide derivatives and related compounds as human CTPS1 inhibitors for the treatment of proliferative diseases” (Step Pharma S.A.S., priority 2019, published 2023)
